This is an account of results in patent publication US11185812B2, “Regenerative recovery of sulfur dioxide from effluent gases” (MECS, INC., priority 2010, dated 2021).

Like-named read-outs stand apart in the source and are kept apart here.

A short description of series [1]: Equilibrium loading data for metal salts, batch absorber experiments. The settings on record: atmospheric pressure; for SO2, ppm: equilibrium SO2 concentration; for Loading Capacity (fraction): equilibrium, aqueous absorption solution. The format is physicochemical. As to the method: The following experiments were conducted in a batch absorber wherein a sulfur dioxide-containing gas was fed via a sparger below the liquid level in a vessel containing an aqueous absorption solution comprising various polyprotic carboxylic acid salts and the composition of the exhaust gas was monitored.
The sulfur dioxide-containing inlet gas 101 to be treated comprised nitrogen saturated with water vapor and a controlled concentration of sulfur dioxide. Temperatures (T) and pressure (P) were monitored during the experiment and gas samples (S) were taken at different times during the experiment. T1 and P1 are temperature and pressure sensors of inlet gas 101. S1 is a sampling point for inlet gas 101. T2 is a temperature sensor of the liquid in the vessel. T3 is a temperature sensor of exhaust gas 102.
In these experiments and other experiments reported in the Examples below, the gas concentrations were measured by gas chromatography and liquid concentrations were calculated by material balance.
All experiments were performed at atmospheric pressure. These experiments approach equilibrium concentrations and, in some cases, equilibrium data (denoted Eq. in the legend) are also included in the graphed results. For the equilibrium data, the compositions of the gas and liquid were diluted with excess caustic to maintain the sulfur dioxide in solution.
Total sulfur content was determined using ASTM Standard D1552, “Standard Test Method for Sulfur in Petroleum Products (High-Temperature Method”, DOI: 10.1520/D1552-08, available from ASTM International, West Conshohocken, Pa., www.astm.org.

For series [2] the following is noted: cited from earlier work.

For `O=C([O-])CC(O)C(=O)[O-].[Na+].[Na+]` (stereo not shown) [Na Mal, sodium malate], in series [1] (50 °C), the “SO2, ppm” value came out at 406.6 ppm and the “Loading Capacity (fraction)” value was 0.1694 fraction. In series [1] (100 °C), the “SO2, ppm” value turned out to be 2169.06 ppm and the “Loading Capacity (fraction)” value worked out at 0.1416 fraction.

`O=C(O)c1cccnc1` [Nicotinic acid]: in series [2] (temperature not given), the pKa1 is 4.75.

Consider `O=C([O-])CCC(=O)[O-].[Na+].[Na+]` [Na Suc, sodium succinate], for which, in series [1] (50 °C), the “SO2, ppm” value is listed as 137.54 ppm and the “Loading Capacity (fraction)” value turned out to be 0.1045 fraction. Also, in series [1] (100 °C), the “SO2, ppm” value was 1387.3 ppm and the “Loading Capacity (fraction)” value was 0.2053 fraction.

Turning to `CC(=O)CCC(=O)O` [Levulinic Acid], the pKa1 in series [2] (25° C.) is given as 4.59.

With `O=C(O)CCCC(=O)O` [L-Glutaric Acid], in series [2] (25° C.), the pKa1 is given as 4.31 and the pKa2 is recorded as 5.41.

Turning to `O=C([O-])c1ccccc1C(=O)[O-].[Na+].[Na+]` [Na Pha, sodium phthalate], in series [1] (50 °C), the “SO2, ppm” value came out at 1115.92 ppm and the “Loading Capacity (fraction)” value turned out to be 0.6530 fraction. In addition, in series [1] (100 °C), the “SO2, ppm” value amounted to 11303.83 ppm and the “Loading Capacity (fraction)” value is on record as 0.7250 fraction.

For the compound `O=C(O)c1ccccc1C(=O)O` [o-Phthalic Acid], in series [2] (25° C.), the pKa1 is on record as 2.89 and the pKa2 is given as 5.51.

Regarding `O=C([O-])CC(O)(CC(=O)[O-])C(=O)[O-].[K+].[K+].[K+]` [K Cit, potassium citrate], the “SO2, ppm” value in series [1] (50 °C) turned out to be 105.94 ppm; in series [1] (100 °C), 1162.54 ppm. Besides, the “Loading Capacity (fraction)” value in series [1] (50 °C) was 0.2754 fraction; in series [1] (100 °C), 0.2668 fraction.
